Six compounds from ChEMBL document CHEMBL1149427 (Bioorg Med Chem Lett, 2006) can be followed below.

The term Emax denotes the greatest response seen or fitted, relative to the assay's reference. As usually defined, the EC50 is the concentration needed to bring the measured effect to its halfway point.

Assay [1] concerns the target Histamine H1 receptor (Cavia porcellus) (UniProt P31389). In words: (§1) Agonist activity at histamine H1 receptor in guinea pig ileum. It is filed as functional, tissue-based.
Assay [2] has the same target. In words: Functional activity at the histamine H1 receptor in guinea pig ileum. It is filed as tissue-based.
The target in assay [3] is Histamine H1 receptor (Cavia porcellus, UniProt P31389). Described as §1. It is filed as functional, tissue-based.
Assay [4] deals with Histamine H1 receptor (Cavia porcellus) (UniProt P31389). The assay can be described thus: Agonist activity at histamine H1 receptor in guinea pig ileum in presence of mepyramine. It is filed as functional, tissue-based.

Molecules are shown by their SMILES.

Sequence of Histamine H1 receptor (Cavia porcellus) (P31389 whole entry): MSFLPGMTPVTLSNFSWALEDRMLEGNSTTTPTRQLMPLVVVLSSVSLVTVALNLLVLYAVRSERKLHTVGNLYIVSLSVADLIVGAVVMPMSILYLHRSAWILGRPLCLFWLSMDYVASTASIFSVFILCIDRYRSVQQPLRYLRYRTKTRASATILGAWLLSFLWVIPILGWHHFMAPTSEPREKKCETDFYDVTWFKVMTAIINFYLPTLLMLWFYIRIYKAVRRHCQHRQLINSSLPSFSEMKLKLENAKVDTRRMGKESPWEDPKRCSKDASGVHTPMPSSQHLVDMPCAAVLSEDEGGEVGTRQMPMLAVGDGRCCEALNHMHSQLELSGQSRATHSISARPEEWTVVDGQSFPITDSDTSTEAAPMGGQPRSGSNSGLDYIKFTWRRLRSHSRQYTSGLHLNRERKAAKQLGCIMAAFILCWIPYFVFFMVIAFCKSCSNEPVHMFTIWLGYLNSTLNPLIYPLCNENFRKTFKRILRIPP
Sequence of Histamine H1 receptor (P31389 whole entry): as above

The compound `COCCOCn1cc(CCN)nc1C(=O)CC(c1ccccc1)c1ccccc1` displayed an Emax in assay [1] of 0%. In addition, the pD'2 in assay [2] stood at 5.05.

With `N[C@H](CO)[C@H](O)c1c[nH]c(C(=O)CC(c2ccccc2)c2ccccc2)n1`, the Emax in assay [1] stood at 0%. The pD'2 in assay [2] is 4.08.

As for `NCCc1c[nH]cn1`, in assay [1], the Activity was determined as 100%.

As for `NCCc1c[nH]c(C(=O)CC(c2ccccc2)c2ccccc2)n1`, in assay [1], the Activity is 12% and the maximum response (Emax) was determined as 75%. This compound also had an EC50 in assay [3] of 1660 nM. Besides, the Emax in assay [4] is 47%.

Compound `COC(=O)C(N)C(O)c1c[nH]c(C(=O)CC(c2ccccc2)c2ccccc2)n1` (racemic) gave a maximum response (Emax) in assay [1] of 0%. Besides, the pD'2 in assay [2] was 3.8.

Compound `COC(=O)[C@@H](N)[C@H](O)c1c[nH]c(C(=O)CC(c2ccccc2)c2ccccc2)n1` displayed a maximal effect (Emax) in assay [1] of 0%. Further, in assay [2], the pD'2 was found to be 4.61.
